From ChEMBL document CHEMBL1127063, “NMR and computational evidence that high-affinity bradykinin receptor antagonists adopt C-terminal beta-turns” (J Med Chem, 1993)

Columns and labels:
B2 bradykinin receptor = molecular target: T1, B2 bradykinin receptor (Cavia porcellus, UniProt O70526); assay: In vitro binding affinity against bradykinin receptor B2 from guinea pig ileum.; assay type: tissue-based
T1 sequence (O70526 whole entry): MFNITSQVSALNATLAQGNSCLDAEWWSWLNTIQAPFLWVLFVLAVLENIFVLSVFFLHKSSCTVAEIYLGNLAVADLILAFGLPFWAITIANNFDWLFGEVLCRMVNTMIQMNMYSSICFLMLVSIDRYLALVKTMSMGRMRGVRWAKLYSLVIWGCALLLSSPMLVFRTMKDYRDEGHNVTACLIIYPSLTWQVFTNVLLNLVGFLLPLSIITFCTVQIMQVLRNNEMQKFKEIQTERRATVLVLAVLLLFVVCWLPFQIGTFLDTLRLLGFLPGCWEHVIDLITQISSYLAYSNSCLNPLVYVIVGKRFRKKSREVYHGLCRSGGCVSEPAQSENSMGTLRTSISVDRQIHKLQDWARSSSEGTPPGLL

Cavia porcellus = species on record: Cavia porcellus; assay: pA2 value against guinea pig ileum.; assay type: functional; conditions: read-out: pA2 (converted)

Structure (SMILES) | Ki (B2 bradykinin receptor) | Kb (Cavia porcellus)
NC(N)=NCCC[C@@H](N)C(=O)N[C@@H](CCCN=C(N)N)C(=O)N1CCC[C@H]1C(=O)N1CCC[C@H]1C(=O)NCC(=O)N[C@@H](Cc1ccccc1)C(=O)N[C@@H](CO)C(=O)N[C@H](Cc1ccccc1)C(=O)N1C2CCCCC2C[C@H]1C(=O)N[C@@H](CCCN=C(N)N)C(=O)O (stereo partly specified) | 0.75 nM | 5.01 nM
NC(N)=NCCC[C@@H](N)C(=O)N[C@@H](CCCN=C(N)N)C(=O)N1CCC[C@H]1C(=O)N1C[C@H](O)C[C@H]1C(=O)NCC(=O)N[C@@H](Cc1cccs1)C(=O)N[C@@H](CO)C(=O)N1Cc2ccccc2C[C@@H]1C(=O)N1[C@H](C(=O)N[C@@H](CCCN=C(N)N)C(=O)O)C[C@@H]2CCCC[C@@H]21 [ICATIBANT] | 0.11 nM | 2 nM
CCCO[C@H]1C[C@H](C(=O)N2[C@H](C(=O)N[C@@H](CCCNC(=N)N)C(=O)O)C[C@@H]3CCCC[C@@H]32)N(C(=O)[C@H](CO)NC(=O)[C@H](Cc2cccs2)NC(=O)CNC(=O)[C@@H]2C[C@@H](O)CN2C(=O)[C@@H]2CCCN2C(=O)[C@H](CCCNC(=N)N)NC(=O)[C@H](N)CCCNC(=N)N)C1 | 0.16 nM | 3.16 nM
